Series [1] concerns the target T1, folate receptor (FR) on FR-positive KB cells (Homo sapiens, UniProt P15328).
T1 construct: FR-positive KB cells were gently trypsinized; endogenous in cells; host or cells: KB cells
Kind of series: Relative affinity assay (blocking of 3H-folic acid binding to KB cells). The note with it: for pIC50: 100 nM 3H-folic acid, KB cells, 15 min on ice, triplicate; for RA (relative affinity): inverse molar ratio to displace 50% of 3H-folic acid, folic acid set to 1. The procedure: The relative affinity of various folate derivatives was determined according to the method described by Westerhoff et al. (Mol. Pharm., 48: 459-471 (1995)) with slight modification. Briefly, FR-positive KB cells were gently trypsinized in 0.25% trypsin/PBS at room temperature for 3 minutes and then diluted in FFRPMI/HIFCS. Following a 5 min 800×g spin and one PBS wash, the final cell pellet was suspended in FFRPMI 1640 (no serum). […] Samples were centrifuged at 10,000×g for 5 min, cell pellets were suspended in buffer, were transferred to individual vials containing 5 mL of scintillation cocktail, and were then counted for radioactivity.
Likewise, values lower than unity reflect weaker affinity, and values higher than unity reflect stronger affinity.
Following a 15-minute incubation at 4° C., cells were rinsed free of unbound material and counted for residual cell-associated radioactivity.

Series [2] deals with T2, folate receptor (FR) on KB cells (Homo sapiens, UniProt P15328).
T2 construct: FR-positive KB cells were gently trypsinized; endogenous in cells; host or cells: KB cells
T2 sequence (P15328 25-234): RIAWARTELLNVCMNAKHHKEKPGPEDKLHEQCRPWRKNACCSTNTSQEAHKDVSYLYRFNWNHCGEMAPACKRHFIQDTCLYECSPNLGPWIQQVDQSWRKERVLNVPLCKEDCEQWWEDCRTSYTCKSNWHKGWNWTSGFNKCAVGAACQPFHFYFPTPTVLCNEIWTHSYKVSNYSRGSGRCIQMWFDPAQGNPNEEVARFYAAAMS
Kind of series: Concentration-dependent cell uptake (Scatchard analysis). It counts as binding. The note with it: 2 hours at 37° C., read-out: KD of binding (Scatchard analysis). As for the experimental part:
KB cells were seeded in 12-well Falcon plates and allowed to form sub-confluent monolayers overnight. Following one rinse with 1 mL of fresh FERPMI/HIFCS, each well received 1 mL of FFRPMI/HIFCS containing increasing concentrations of ^99mTc-EC20. Cells were incubated for 2 hours at 37° C. and then rinsed four times with 1 mL of ice-cold PBS, pH 7.4. The monolayers were dissolved in 0.5 mL of PBS, pH 7.4 containing 1% sodium dodecyl sulfate for 15 min at room temperature and then counted for radioactivity using a Packard gamma counter. Protein content was determined as described above, and final tabulated values were expressed in terms of molecules of EC20 per cell.
The particular KB cells used were determined to bind a maximum of four million molecules of the folate radiopharmaceutical per cell.
This HPLC-purified radiolabeled material (Peak B material) was collected and then added to cultured KB cells.

In series [3] the test system is FR-positive M109 tumors. Kind of series: Tissue distribution, subcutaneous M109 tumors (Example 11). As for the experimental part:
The ability of ^99mTc-EC20 to target tumors in vivo was assessed using a FR-positive M109 model.
Four to five week-old mice (Balb/c strain) were purchased from Harlan Sprague Dawley, Inc. (Indianapolis, Ind.) and were maintained on a folate-free diet for a total of three weeks prior to the experiment. Syngeneic, FR-positive M109 tumor cells (1×10^6 per animal) were inoculated in the subcutis of the right axilla two weeks prior to the experiment.
Animals received an approximate 40 μmol/kg i.v. dose of test article in 100 μL volume via a lateral tail vein during brief diethyl ether anesthesia. Four hours post-injection, animals were sacrificed by CO2 asphyxiation, and dissected. Selected tissues were removed, weighed, and counted to determine ^99mTc distribution. CPM values were decay-corrected, and results were tabulated as % injected dose per gram of wet weight tissue.

The test system of series [4] is FR-positive KB tumors. Kind of series: Tissue distribution, KB tumor model (Example 16, Table 5). It counts as in vivo, nude mice. The note with it: about 20-fold excess of free folate. As for the experimental part:
The protocols used in this example are similar to those described in Example 11. The ability of ^99mTc-EC11 (peptide-A1), ^99mTc-EC13 (peptide-A3), and ^99mTc-EC14 (peptide-A2) to target tumors in vivo was assessed using the FR-positive KB tumor model.
(§1) FR-positive KB tumor cells (0.25×10^6 per animal) were inoculated subcutaneously in the intracapsular region. Fourteen days after tumor cell inoculation, the animals (n=4/group) were injected intravenously with ^99mTc-EC11, ^99mTc-EC13, or ^99mTc-EC14 at the doses (about 12 μg/kg) of the conjugates shown in Table 5 below. Stocks of ^99mTc-EC11, ^99mTc-EC13, and ^99mTc-EC14 solutions were prepared on the day of use as described above. About a 20-fold excess of free folate (about 200 μg/kg) was co-administered to control animals (n=4/group). […] Selected tissues were removed, weighed, and counted in an automatic gamma counter to determine ^99mTc distribution. Uptake of the radiopharmaceutical in terms of percentage injected dose of wet weight tissue (% ID/g) was calculated by reference to standards prepared from dilutions of the injected preparation.

In series [5] the test system is FR-positive KB tumors. Kind of series: Tissue distribution of 99mTc-EC53, KB tumors (Table 6). It counts as in vivo. The procedure: as §1
Similar results (see Table 6 below) were obtained with ^99mTc-EC53 (the all D-enantiomer of EC20) using similar protocols except that the dose of ^99mTc-EC53 was about 50 μg/kg and about a 100-fold excess of free folate or cold EC53 was used. […] The accumulation was blocked by co-administration of free folate.

The subject of series [6] is KB tumor. The note with it: reported previously; cited from earlier work.
[7] abbreviates: 4 hr post i.v., + Folic acid (100 equivalents).
Setting [8] is: 4 hr post intravenous injection.

pIC50, pKd: −log10 of the molar value.

Broadly, the pIC50 is −log10 of the IC50, conventionally taken in molar units. Low readings indicate a high IC50, high ones a low IC50. In general, pKd refers to the negative decadic logarithm of the Kd, by convention in mol/L.

T1 sequence (P15328 25-234): as above

In the case of `Nc1nc2ncc(CNc3ccc(C(=O)N[C@H](CCC(=O)NC[C@@H]4[NH2+][Re-]56(=[O])[S]C[C@@H](C(=O)O)[N]5C(=O)[C@H](CC(=O)O)[N]6C4=O)C(=O)O)cc3)nc2c(=O)[nH]1` (single isomer, unassigned; isomer 1) [EC20:Re isomer 1], in series [1], the pIC50 was 7.08 and the “RA (relative affinity)” value is on record as 1.42. Moreover, in series [1] (listed as Re-EC20 isomer A), the “RA (relative affinity)” value came out at 1.42.

On to `Nc1nc2ncc(CNc3ccc(C(=O)N[C@H](CCC(=O)NC[C@@H]4[NH2+][Re-]56(=[O])[S]C[C@@H](C(=O)O)[N]5C(=O)[C@H](CC(=O)O)[N]6C4=O)C(=O)O)cc3)nc2c(=O)[nH]1` (single isomer, unassigned; isomer 2) [EC20:Re isomer 2], for which, in series [1], the negative logarithm of the IC50 (pIC50) was 7.07 and the “RA (relative affinity)” value amounted to 1.37. Moreover, in series [1] (listed as Re-EC20 isomer B), the “RA (relative affinity)” value turned out to be 1.37.

In the case of `Nc1nc2ncc(CNc3ccc(C(=O)NC(CCC(=O)NCC(N)C(=O)NC(CC(=O)O)C(=O)NC(CS)C(=O)O)C(=O)O)cc3)nc2c(=O)[nH]1` (stereo not shown) [EC20], the pKd in series [2] was roughly 8.52. Moreover, in series [1], the pIC50 was 6.89 and the “RA (relative affinity)” value is 0.92.

Turning to `Nc1nc2ncc(CNc3ccc(C(=O)N[C@@H](CCC(=O)N[C@H](CCC(=O)NC[C@@H]4[NH2+][99Tc-]56(=[O])[S]C[C@@H](C(=O)O)[N]5C(=O)[C@H](CC(=O)O)[N]6C4=O)C(=O)O)C(=O)O)cc3)nc2c(=O)[nH]1` [^99mTc-EC14], in series [3] (setting [7]), the Blood was 0.19 ± 0.07 % Injected Dose per Gram Tissue, the Heart is 0.08 ± 0.01 % Injected Dose per Gram Tissue, the Intestine was 0.32 ± 0.11 % Injected Dose per Gram Tissue and the Kidney was 5.94 ± 0.52 % Injected Dose per Gram Tissue. Moreover, in series [3] (setting [7]), the Liver was 1.37 ± 0.98 % Injected Dose per Gram Tissue, the Lung is 0.15 ± 0.04 % Injected Dose per Gram Tissue, the Muscle is on record as 0.09 ± 0.11 % Injected Dose per Gram Tissue and the Spleen is 2.99 ± 1.43 % Injected Dose per Gram Tissue. For the same compound, in series [3] (setting [7]), the Stomach is 0.10 ± 0.03 % Injected Dose per Gram Tissue, the Tumor is on record as 0.43 ± 0.52 % Injected Dose per Gram Tissue and the Tumor/Blood came to 2.00 ± 2.00. Further, in series [3] (setting [8]), the Blood was 0.31 ± 0.14 % Injected Dose per Gram Tissue, the Heart was 2.39 ± 0.64 % Injected Dose per Gram Tissue, the Intestine is 1.70 ± 0.55 % Injected Dose per Gram Tissue and the Kidney is 98.0 ± 40.7 % Injected Dose per Gram Tissue. Besides, in series [3] (setting [8]), the Liver is listed as 3.44 ± 2.19 % Injected Dose per Gram Tissue, the Lung is reported as 2.08 ± 0.40 % Injected Dose per Gram Tissue, the Muscle is 0.99 ± 0.28 % Injected Dose per Gram Tissue and the Spleen was 2.68 ± 2.49 % Injected Dose per Gram Tissue. Moreover, in series [3] (setting [8]), the Stomach was 1.47 ± 0.58 % Injected Dose per Gram Tissue and the Tumor/Blood worked out at 34.1 ± 7.41. For the same compound, the “accumulation in FR-positive KB tumors and kidneys on co-administration of free folate” value in series [4] was “blocked”.

With `Nc1nc2ncc(CNc3ccc(C(=O)N[C@H](CCC(=O)NC[C@H]4[NH2+][99Tc-]56(=[O])[S]C[C@H](C(=O)O)[N]5C(=O)[C@@H](CC(=O)O)[N]6C4=O)C(=O)O)cc3)nc2c(=O)[nH]1` [^99mTc-EC53], in series [5] (99mTc-EC53 alone), the “Tumor/Blood, Average” value turned out to be 31.4; the “Tumor/Kidney, Average” value is recorded as 0.2; the “Tumor/Liver, Average” value is reported as 3.4; the “Tumor/Muscle, Average” value came to 17.1. For the same compound, in series [5] (99mTc-EC53 alone, 50.0 ug/kg), the “Tumor, Average” value turned out to be 11.77 % ID/g; the “blood, Average” value is reported as 0.38 % ID/g; the “heart, Average” value turned out to be 1.09 % ID/g; the “intestine, Average” value is reported as 3.53 % ID/g. In series [5] (99mTc-EC53 alone, 50.0 ug/kg), the “kidney, Average” value worked out at 77.99 % ID/g; the “liver, Average” value came out at 3.86 % ID/g; the “lung, Average” value is 0.89 % ID/g; the “muscle, Average” value was 0.76 % ID/g. Also, in series [5] (99mTc-EC53 alone, 50.0 ug/kg), the “spleen, Average” value worked out at 0.67 % ID/g and the “stomach, Average” value was 1.04 % ID/g. Further, the “accumulation in FR-positive KB tumors and kidneys on co-administration of free folate” value in series [5] (about a 100-fold excess of free folate) is given as “blocked”. Moreover, in series [5] (plus EC53 (cold)), the “Tumor/Blood, Average” value was 4.5; the “Tumor/Kidney, Average” value was determined as 0.14; the “Tumor/Liver, Average” value is 0.3; the “Tumor/Muscle, Average” value is reported as 8.5. For the same compound, in series [5] (plus Folic Acid), the “Tumor/Blood, Average” value is reported as 2.2; the “Tumor/Kidney, Average” value stood at 0.07; the “Tumor/Liver, Average” value amounted to 0.1; the “Tumor/Muscle, Average” value was found to be 5.2.

Take “^99mTc-12-amino-3,3,9,9-tetramethyl-5-oxa-4,8 diaza-2,10-dodecanedinoe dioxime (OXA) folate conjugate”: in series [6], the “tracer uptake in a KB tumor” value is on record as roughly 7 % ID/g.

As for “benzoyl-D-Glu-n-Glu-βDpr-Asp-Cys [^99mTc-EC28, reference compound]”, the “accumulation in the kidneys and tumor” value in series [3] (4 hr post i.v.) was “failed to appreciably accumulate in the kidneys and tumor”. Moreover, in series [3] (setting [8]), the Blood is listed as 0.06 ± 0.04 % Injected Dose per Gram Tissue, the Heart is reported as 0.03 ± 0.01 % Injected Dose per Gram Tissue, the Intestine is 0.47 ± 0.19 % Injected Dose per Gram Tissue and the Kidney is recorded as 0.62 ± 0.14 % Injected Dose per Gram Tissue. Also, in series [3] (setting [8]), the Liver was 0.50 ± 0.26 % Injected Dose per Gram Tissue, the Lung was 0.05 ± 0.01 % Injected Dose per Gram Tissue, the Muscle is on record as 0.02 ± 0.01 % Injected Dose per Gram Tissue and the Spleen is 0.60 ± 0.38 % Injected Dose per Gram Tissue. Also, in series [3] (setting [8]), the Stomach is recorded as 0.21 ± 0.19 % Injected Dose per Gram Tissue and the Tumor/Blood was found to be 2.00 ± 0.50. In addition, the Tumor in series [3] (4 hr post intravenous injection, M109 tumor) is given as 0.11 ± 0.06 % Injected Dose per Gram Tissue.

The record behind these values is US7862798B2, “Vitamin-targeted imaging agents” (Endocyte, Inc., priority 2002, dated 2011).
